Experimental data published in ChEMBL document CHEMBL1201862, “PubChem BioAssay data set” (2004).
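Test compounds were applied to cells in 96-well plates for 48 hours at 5 doses. Abbreviation: GI50, concentration required for 50% inhibition of growth.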 Calls of active or inactive are those of the source. Cut-off read from the data, not from the text of the source: active = GI50 up to about 1.1 µM and inactive = higher.

Legend:
Test in all cases: NCI tumour cell line growth inhibition, 48 h
[1] = tested on: NCI-H226
[2] = tested on: U-251
[3] = tested on: CAKI-1
[4] = tested on: MCF7
[5] = tested on: EKVX
[6] = tested on: KM12
[7] = tested on: HCT-15
[8] = tested on: IGROV-1
[9] = tested on: HL-60
[10] = tested on: DU-145
[11] = tested on: RXF 393
[12] = tested on: HCC 2998
[13] = tested on: OVCAR-8
[14] = tested on: HCT-116
[15] = tested on: K562
[16] = tested on: LOX IMVI
[17] = tested on: HOP-62
[18] = tested on: SK-MEL-2
[19] = tested on: MDA-MB-435
[20] = tested on: ACHN
[21] = tested on: SNB-19
[22] = tested on: NCI-H23
[23] = tested on: Hs-578T
[24] = tested on: SK-MEL-5
[25] = tested on: OVCAR-3
[26] = tested on: M14
[27] = tested on: COLO 205
[28] = tested on: UACC-62
[29] = tested on: MOLT-4
[30] = tested on: SNB-75
[31] = tested on: SK-OV-3
[32] = tested on: NCI/ADR-RES
[33] = tested on: MDA-MB-231
[34] = tested on: SW-620
[35] = tested on: HT-29
[36] = tested on: 786-0
[37] = tested on: NCI-H460
[38] = tested on: MDA-N
[39] = tested on: SF-539
[40] = tested on: PC-3
[41] = tested on: OVCAR-4
[42] = tested on: Malme-3M
[43] = tested on: A498
[44] = tested on: SR
[45] = tested on: SN12C
[46] = tested on: SK-MEL-28
[47] = tested on: NCI-H522
[48] = tested on: T47D
[49] = tested on: UO-31
[50] = tested on: SF-268
[51] = tested on: CCRF-CEM
[52] = tested on: SF-295
[53] = tested on: A549
[54] = tested on: OVCAR-5
[55] = tested on: UACC-257
[56] = tested on: TK-10
[57] = tested on: RPMI-8226
[58] = tested on: HOP-92

With `O=C1NC(c2cccc3ccccc23)Nc2ccc(Cl)cc21` (configuration not stated) the GI50 [1] was 4.32 nM (active), the GI50 [2] was 0.977 nM (active) and the GI50 [3] was 1.18 nM (active). The GI50 [4] was 74.1 nM (active), the GI50 [5] was 2.35 nM (active) and the GI50 [6] was 2.2 nM (active). For the same molecule, the GI50 [7] was 1.8 nM, the GI50 [8] was 18.1 nM (active) and the GI50 [9] was 0.133 nM (active). For the same molecule, the GI50 [10] was 4.52 nM (active), the GI50 [11] was 3.94 nM (active) and the GI50 [12] was 10.5 nM (active). The GI50 [13] was 9.35 nM (active), the GI50 [14] was 0.912 nM (active) and the GI50 [15] was < 0.1 nM (active). For the same molecule, the GI50 [16] was 0.482 nM (active), the GI50 [17] was 2.61 nM (active) and the GI50 [18] was 2.04 nM (active). The GI50 [19] was < 0.1 nM (active), the GI50 [20] was 2.68 nM (active) and the GI50 [21] was 1.89 nM (active). The GI50 [22] was 57.9 nM (active), the GI50 [23] was 0.624 nM (active) and the GI50 [24] was 1.06 nM (active). The GI50 [25] was 1.6 nM (active), the GI50 [26] was 1.15 nM (active) and the GI50 [27] was 2.39 nM (active). For the same molecule, the GI50 [28] was 0.214 nM (active), the GI50 [29] was 1.74 nM (active) and the GI50 [30] was 0.164 nM (active). For the same molecule, the GI50 [31] was 1.05 nM (active), the GI50 [32] was 1.11 nM (active) and the GI50 [33] was 8.38 nM (active). For the same molecule, the GI50 [34] was 1.68 nM (active), the GI50 [35] was 1.66 nM (active) and the GI50 [36] was 1.93 nM (active). The GI50 [37] was 3.8 nM (active), the GI50 [38] was < 0.1 nM (active) and the GI50 [39] was < 10 nM (active). For the same molecule, the GI50 [40] was 1.65 nM (active), the GI50 [41] was 327 nM (active) and the GI50 [42] was 1.76 nM (active). The GI50 [43] was 1.43 nM (active), the GI50 [44] was 0.229 nM (active) and the GI50 [45] was 8.28 nM (active). The GI50 [46] was < 10 nM (active), the GI50 [47] was 0.546 nM (active) and the GI50 [48] was 20500 nM (inactive). For the same molecule, the GI50 [49] was 3.19 nM (active), the GI50 [50] was 3.5 nM (active) and the GI50 [51] was 0.618 nM (active). The GI50 [52] was 0.516 nM (active), the GI50 [53] was 5.09 nM (active) and the GI50 [54] was 24.4 nM (active).
With `Nc1ncnc2c1ncn2CC(OCP(=O)(O)O)Oc1ccccc1` (configuration not stated) the GI50 [1] was > 100000 nM (inactive), the GI50 [2] was > 100000 nM (inactive) and the GI50 [3] was > 100000 nM (inactive). For the same molecule, the GI50 [4] was > 100000 nM (inactive), the GI50 [55] was > 100000 nM (inactive) and the GI50 [5] was > 100000 nM (inactive). The GI50 [6] was > 100000 nM (inactive), the GI50 [7] was over 100000 nM and the GI50 [10] was > 100000 nM (inactive). The GI50 [11] was > 100000 nM (inactive), the GI50 [12] was > 100000 nM (inactive) and the GI50 [14] was > 100000 nM (inactive). For the same molecule, the GI50 [15] was > 100000 nM (inactive), the GI50 [16] was > 100000 nM (inactive) and the GI50 [17] was > 100000 nM (inactive). For the same molecule, the GI50 [18] was > 100000 nM (inactive), the GI50 [19] was > 100000 nM (inactive) and the GI50 [20] was > 100000 nM (inactive). The GI50 [56] was > 100000 nM (inactive), the GI50 [21] was > 100000 nM (inactive) and the GI50 [23] was > 100000 nM (inactive). The GI50 [24] was > 100000 nM (inactive), the GI50 [25] was > 100000 nM (inactive) and the GI50 [57] was > 100000 nM (inactive). For the same molecule, the GI50 [26] was > 100000 nM (inactive), the GI50 [27] was > 100000 nM (inactive) and the GI50 [28] was > 100000 nM (inactive). The GI50 [30] was > 100000 nM (inactive), the GI50 [31] was > 100000 nM (inactive) and the GI50 [32] was > 100000 nM (inactive). The GI50 [33] was > 100000 nM (inactive), the GI50 [34] was > 100000 nM (inactive) and the GI50 [36] was > 100000 nM (inactive). For the same molecule, the GI50 [38] was > 100000 nM (inactive), the GI50 [39] was > 100000 nM (inactive) and the GI50 [40] was > 100000 nM (inactive). For the same molecule, the GI50 [41] was > 100000 nM (inactive), the GI50 [43] was > 100000 nM (inactive) and the GI50 [45] was > 100000 nM (inactive). For the same molecule, the GI50 [46] was > 100000 nM (inactive), the GI50 [58] was > 100000 nM (inactive) and the GI50 [48] was > 100000 nM (inactive). The GI50 [49] was > 100000 nM (inactive), the GI50 [50] was > 100000 nM (inactive) and the GI50 [51] was > 100000 nM (inactive). For the same molecule, the GI50 [52] was > 100000 nM (inactive), the GI50 [53] was > 100000 nM (inactive) and the GI50 [54] was > 100000 nM (inactive).
